Experimental data published in patent US11414425B2 (priority 2018, dated 2022).
pKi: −log10 of the molar value.

Legend:
[1] = biological target: α5β3γ2 GABAA receptors (Homo sapiens, UniProt P18507+P31644); test: [3H]Ro15-1788 binding, membranes of Ltk cells stably expressing α5β3γ2 GABAA receptors; details: ranges; inhibition of [3H]Ro15-1788 binding
[2] = biological target: T1, GABAA receptors (α5β2γ2) (Homo sapiens, UniProt P18507+P31644); test: Positive allosteric modulator activity: potentiation of EC20 GABA current in oocytes; type: cell-based; details: read-out: GABA α5 Functional Data (potentiation of EC20 GABA); @ 100 nM; ranges
T1 construct: expressed in transfected cells
T1 sequence (P31644 32-462): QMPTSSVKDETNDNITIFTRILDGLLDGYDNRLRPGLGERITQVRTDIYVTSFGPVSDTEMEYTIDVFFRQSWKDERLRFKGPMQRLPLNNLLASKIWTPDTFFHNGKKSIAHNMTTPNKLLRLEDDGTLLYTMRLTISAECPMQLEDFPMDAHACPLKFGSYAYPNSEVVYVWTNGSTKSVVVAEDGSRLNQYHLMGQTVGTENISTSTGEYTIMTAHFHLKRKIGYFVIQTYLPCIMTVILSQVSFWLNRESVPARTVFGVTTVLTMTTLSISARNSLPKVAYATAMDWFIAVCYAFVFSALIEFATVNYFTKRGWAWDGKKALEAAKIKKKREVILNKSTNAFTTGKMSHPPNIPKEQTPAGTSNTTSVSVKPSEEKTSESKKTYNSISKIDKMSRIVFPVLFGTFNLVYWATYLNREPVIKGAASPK
T1 sequence (P47870 25-512, further chain): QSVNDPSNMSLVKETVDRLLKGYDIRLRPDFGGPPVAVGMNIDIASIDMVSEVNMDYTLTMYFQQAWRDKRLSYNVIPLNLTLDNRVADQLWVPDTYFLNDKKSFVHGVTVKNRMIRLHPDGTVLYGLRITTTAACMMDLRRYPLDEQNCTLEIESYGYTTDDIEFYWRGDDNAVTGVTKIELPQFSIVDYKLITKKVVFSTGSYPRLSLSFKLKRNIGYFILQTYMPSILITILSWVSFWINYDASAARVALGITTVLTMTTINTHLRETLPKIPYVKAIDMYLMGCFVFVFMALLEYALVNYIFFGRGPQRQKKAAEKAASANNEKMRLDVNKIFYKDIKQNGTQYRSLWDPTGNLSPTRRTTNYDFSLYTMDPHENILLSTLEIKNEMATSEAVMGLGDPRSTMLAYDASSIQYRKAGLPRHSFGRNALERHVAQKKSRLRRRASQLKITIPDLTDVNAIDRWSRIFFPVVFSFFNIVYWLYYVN
T1 sequence (P18507 40-475): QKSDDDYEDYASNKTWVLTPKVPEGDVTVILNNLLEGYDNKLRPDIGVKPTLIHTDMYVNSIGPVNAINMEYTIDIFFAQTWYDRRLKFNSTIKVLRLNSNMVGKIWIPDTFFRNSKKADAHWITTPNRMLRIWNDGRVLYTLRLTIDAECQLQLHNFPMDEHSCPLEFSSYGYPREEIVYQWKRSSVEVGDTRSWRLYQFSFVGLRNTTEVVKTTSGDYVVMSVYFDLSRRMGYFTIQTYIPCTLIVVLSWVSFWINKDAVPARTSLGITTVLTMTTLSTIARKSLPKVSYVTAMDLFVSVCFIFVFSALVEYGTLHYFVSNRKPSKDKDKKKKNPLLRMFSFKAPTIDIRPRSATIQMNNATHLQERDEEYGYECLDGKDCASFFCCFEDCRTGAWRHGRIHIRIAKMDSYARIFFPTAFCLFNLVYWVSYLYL
Method: On day 1, 1 ng/32 nL of GABAA α5β2γ2 cDNA was injected into one oocyte. Test starts on day 2. The cDNA injected to the oocytes was a mix of alpha, beta and gamma, their ratio is 1:1:10 (by weight) and the total weight of the mixed 3 subunits to be injected in one oocyte was 1 ng in 32 nl volume. The injected oocytes can also be tested on day 3. In such case, the cDNA amount injected to the oocytes should be reduced by 20%.
1). 8 oocytes were placed in 8 chambers of OpusXpress and superfused with Modified Barth's Saline (MBS) at 3 mL/min. Glass electrodes back-filled with 3M KCl (0.5-3 megaohms) were used.
1). New oocytes were used to run new test.
3). […] Oocytes were washed with MBS for 5-10 min.
4). […] Itest was divided by IGABA to obtain potentiation (%).
Test Compounds at Multiple Doses • 1). Repeat the above steps 1), 2) and 3) in the control test. • 2). […] Divide Itest by IGABA to obtain potentiation (%). • 3). Discard all tested oocytes, new oocytes were used and the above steps 1) and 2) were repeated to test second concentration of the same compound. Each oocyte was used for only one concentration test for a single test compound. The steps were repeated for other test compounds.

α5β3γ2 GABAA receptors, sequence (P31644 32-462): as the sequence (P31644 32-462) above
α5β3γ2 GABAA receptors, sequence (P28472 26-473 partner): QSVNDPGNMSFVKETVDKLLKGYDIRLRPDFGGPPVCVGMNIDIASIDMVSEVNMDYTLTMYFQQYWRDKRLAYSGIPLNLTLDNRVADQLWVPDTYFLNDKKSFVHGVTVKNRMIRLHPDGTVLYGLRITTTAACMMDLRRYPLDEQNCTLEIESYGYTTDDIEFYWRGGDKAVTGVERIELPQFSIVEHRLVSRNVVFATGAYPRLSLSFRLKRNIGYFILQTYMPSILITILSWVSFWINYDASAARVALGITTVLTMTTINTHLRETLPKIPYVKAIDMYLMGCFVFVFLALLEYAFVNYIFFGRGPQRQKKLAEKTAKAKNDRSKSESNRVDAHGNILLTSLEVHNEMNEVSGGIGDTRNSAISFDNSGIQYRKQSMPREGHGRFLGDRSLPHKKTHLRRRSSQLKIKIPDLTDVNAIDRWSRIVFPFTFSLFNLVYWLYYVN
α5β3γ2 GABAA receptors, sequence (P18507 40-475): as the sequence (P18507 40-475) above

| Compound | pKi [1] | activation at 0.1 µM [2] [%] |
| --- | --- | --- |
| COCc1nnc2n1Cc1c(C#Cc3ccc(OC)cn3)ncn1-c1ccc(Cl)cc1-2 [Compound 528] | > 7.00 | > 50 |
| COc1ccc2c(c1)-n1nncc1Cc1c(C#Cc3ccc(OC)nc3)ncn1-2 [Compound 530] | > 7.00 | 5 to 20 |
| COc1ccc(C#Cc2ncn3c2Cc2cnnn2-c2cc(OC)ccc2-3)nc1 [Compound 531] | > 7.00 | 5 to 20 |
| CC(C)(C)C#Cc1ncn2c1Cc1cnnn1-c1cc(Cl)ccc1-2 [Compound 534] | > 7.00 | 5 to 20 |
| COc1ccc2c(c1)-n1nncc1Cc1c(C#CC(C)(C)C)ncn1-2 [Compound 535] | > 7.00 | 5 to 20 |
| CC(C)(C)c1nc(-c2ncn3c2Cc2cnnn2-c2cc(Cl)ccc2-3)no1 [Compound 536] | > 7.00 | 20 to 50 |
| Clc1ccc2c(c1)-n1nncc1Cc1c(-c3noc(-c4ccccc4)n3)ncn1-2 [Compound 537] | > 7.00 | 20 to 50 |
| CC(C)c1nc(-c2ncn3c2Cc2cnnn2-c2cc(Cl)ccc2-3)no1 [Compound 538] | > 7.00 | 20 to 50 |
| Cc1nc(-c2ncn3c2Cc2cnnn2-c2cc(Cl)ccc2-3)no1 [Compound 539] | > 7.00 | 5 to 20 |
| Clc1ccc2c(c1)-n1nncc1Cc1c(COCc3ccccc3)ncn1-2 [Compound 544] | > 7.00 | 5 to 20 |
| COc1ccc(C#Cc2ncn3c2Cc2cnnn2-c2cc(C(F)(F)F)ccc2-3)cn1 [Compound 553] | > 7.00 | 5 to 20 |
| COc1ccc(C#Cc2ncn3c2Cc2cnnn2-c2cc(OC(F)F)ccc2-3)cn1 [Compound 555] | > 7.00 | 5 to 20 |
| COCc1nnc2n1Cc1c(C#Cc3cncc(C)c3)ncn1-c1ccc(Cl)cc1-2 [Compound 558] | > 7.00 | 5 to 20 |
| COCc1nnc2n1Cc1c(C#Cc3cncc(OC)c3)ncn1-c1ccc(Cl)cc1-2 [Compound 559] | > 7.00 | 5 to 20 |
| COCc1nnc2n1Cc1c(C#Cc3ccc(C)nc3)ncn1-c1ccc(OC)cc1-2 [Compound 561] | > 7.00 | 20 to 50 |
| COCc1nnc2n1Cc1c(C#Cc3ccc(C)cn3)ncn1-c1ccc(OC)cc1-2 [Compound 562] | > 7.00 | 20 to 50 |
| COCc1nnc2n1Cc1c(C#Cc3cncc(OC)c3)ncn1-c1ccc(OC)cc1-2 [Compound 566] | > 7.00 | 5 to 20 |
| COCc1nnc2n1Cc1c(C#Cc3ccnc(OC)c3)ncn1-c1ccc(OC)cc1-2 [Compound 567] | > 7.00 | 5 to 20 |
| COCc1nnc2n1Cc1c(C#Cc3ccnc(OC)c3)ncn1-c1ccc(Cl)cc1-2 [Compound 570] | > 7.00 | 5 to 20 |
| COCc1nnc2n1Cc1c(C#Cc3ncc(OC)cn3)ncn1-c1ccc(Cl)cc1-2 [Compound 574] | > 7.00 | > 50 |
| COCc1nnc2n1Cc1c(C#Cc3cnccn3)ncn1-c1ccc(Cl)cc1-2 [Compound 576] | > 7.00 | 20 to 50 |
| COCc1nnc2n1Cc1c(C#Cc3ccc(OC)c(C)n3)ncn1-c1ccc(Cl)cc1-2 [Compound 581] | > 7.00 | 20 to 50 |
| COCc1nnc2n1Cc1c(C#Cc3cnc(C)cn3)ncn1-c1ccc(Cl)cc1-2 [Compound 582] | > 7.00 | > 50 |
| COCc1nnc2n1Cc1c(C#Cc3cnccn3)ncn1-c1ccc(OC)cc1-2 [Compound 589] | > 7.00 | > 50 |
| COCc1nnc2n1Cc1c(C#Cc3cccc(C)n3)ncn1-c1ccc(Cl)cc1-2 [Compound 596] | > 7.00 | > 50 |
| COCc1nnc2n1Cc1c(C#Cc3cnc(C)s3)ncn1-c1ccc(OC)cc1-2 [Compound 597] | > 7.00 | > 50 |
| COCc1nnc2n1Cc1c(C#Cc3ccc(OC)cn3)ncn1-c1ccc(OC)cc1-2 [Compound 603] | > 7.00 | > 50 |
| CCc1cncc(C#Cc2ncn3c2Cn2c(COC)nnc2-c2cc(Cl)ccc2-3)c1 [Compound 604] | > 7.00 | > 50 |
| COCc1nnc2n1Cc1c(C#Cc3nc(C)cs3)ncn1-c1ccc(Cl)cc1-2 [Compound 605] | > 7.00 | > 50 |
